{"source": "paper PMC10817917", "about": "“Alkyl deoxyglycoside-polymyxin combinations against critical priority carbapenem-resistant gram-negative bacteria” (Scientific Reports, 2024)", "key": {"K. pneumoniae CQ1947": {"test_system": "K. pneumoniae CQ1947", "test": "Broth microdilution MIC, glycosides with or without polymyxins", "assay_type": "cell-based, Klebsiella pneumoniae", "conditions": "compound + colistin, lowest FICI"}, "A. baumannii CQ4322": {"test_system": "A. baumannii CQ4322", "test": "Broth microdilution MIC/MBC, glycosides with or without polymyxins", "assay_type": "cell-based, Acinetobacter baumannii", "conditions": "for MIC: Acinetobacter baumannii, CQ4322"}, "E. cloacae CQ1941": {"test_system": "E. cloacae CQ1941", "test": "Broth microdilution MIC/MBC, glycosides with or without polymyxins", "assay_type": "cell-based", "conditions": "for MIC: Enterobacter cloacae, CQ1941"}, "E. coli NCTC 13846": {"test_system": "E. coli NCTC 13846", "test": "Broth microdilution MIC/MBC, glycosides with or without polymyxins", "assay_type": "cell-based, Escherichia coli", "conditions": "strain B"}, "E. coli ATCC 25922": {"test_system": "E. coli ATCC 25922", "test": "Broth microdilution MIC/MBC, glycosides with or without polymyxins", "assay_type": "cell-based, Escherichia coli", "conditions": "for MIC: Escherichia coli, ATCC25922"}, "[1]": {"conditions": "alone, read-out: MICA (MIC of each compound individually)"}, "[2]": {"conditions": "combination with the lowest FICI"}, "[3]": {"conditions": "compound + colistin, lowest FICI"}}, "note": "Read-outs that look alike come from different tables or passages of the source."}
{"smiles": "CCCCCCCCCCCCO[C@H]1O[C@H](C)C[C@H](O)[C@H]1O", "note": "[Compound 1, dodecyl 4,6-dideoxy-α/β-D-xylo-hexopyranoside]", "values": [{"measurement": "FICI", "setting": "K. pneumoniae CQ1947", "result": 1.016}, {"measurement": "MIC", "setting": "A. baumannii CQ4322; agent alone, no adjuvant (polymyxin conc. 0), strain G, read-out: MIC", "result": "> 100", "unit": "µg/mL"}, {"measurement": "MIC", "setting": "A. baumannii CQ4322; [1]", "result": "> 100", "unit": "µg/mL"}, {"measurement": "MIC of colistin in combination with the compound", "setting": "A. baumannii CQ4322; Cpd conc. 0.4 μg/mL, strain G", "result": "> 0.5", "unit": "µg/mL"}, {"measurement": "MIC of colistin in combination with the compound", "setting": "A. baumannii CQ4322; Cpd conc. 0.8 μg/mL, strain G", "result": "> 0.5", "unit": "µg/mL"}, {"measurement": "MIC of colistin in combination with the compound", "setting": "A. baumannii CQ4322; Cpd conc. 3.125 μg/mL, strain G", "result": 0.25, "unit": "µg/mL"}, {"measurement": "MIC of colistin in combination with the compound", "setting": "A. baumannii CQ4322; Cpd conc. 6.25 μg/mL, strain G", "result": 0.25, "unit": "µg/mL"}, {"measurement": "MIC of colistin in combination with the compound", "setting": "A. baumannii CQ4322; Cpd conc. 12.5 μg/mL, strain G", "result": 0.25, "unit": "µg/mL"}, {"measurement": "MIC of colistin in combination with the compound", "setting": "A. baumannii CQ4322; Cpd conc. […], strain G", "result": 0.5, "unit": "µg/mL"}, {"measurement": "MIC of compound in combination with PMB", "setting": "A. baumannii CQ4322; PMB 0.25 μg/mL, strain G", "result": "> 100", "unit": "µg/mL"}, {"measurement": "MIC of compound in combination with PMB", "setting": "A. baumannii CQ4322; PMB 0.5 μg/mL, strain G", "result": 3.1, "unit": "µg/mL"}, {"measurement": "MIC of compound in combination with colistin", "setting": "A. baumannii CQ4322; colistin 0.06 μg/mL, strain G", "result": "> 100", "unit": "µg/mL"}, {"measurement": "MIC of compound in combination with colistin", "setting": "A. baumannii CQ4322; colistin 0.125 μg/mL, strain G", "result": "> 100", "unit": "µg/mL"}, {"measurement": "MIC of compound in combination with colistin", "setting": "A. baumannii CQ4322; colistin 0.25 μg/mL, strain G", "result": 3.1, "unit": "µg/mL"}, {"measurement": "MIC of compound in combination with colistin", "setting": "A. baumannii CQ4322; colistin 0.5 μg/mL, strain G", "result": 1.6, "unit": "µg/mL"}, {"measurement": "MICA(A + B) (MIC of compound in combination with colistin)", "setting": "A. baumannii CQ4322; [2]", "result": 3.125, "unit": "µg/mL"}, {"measurement": "MICB(A + B) (MIC of colistin in combination with compound)", "setting": "A. baumannii CQ4322; [2]", "result": 0.25, "unit": "µg/mL"}, {"measurement": "Interpretation (of FICI)", "setting": "A. baumannii CQ4322; compound + colistin", "result": "Additive (from 0.5 to 1.0 were additive)"}, {"measurement": "FICI", "setting": "A. baumannii CQ4322; [3]", "result": 0.52}, {"measurement": "MIC of colistin in combination with the compound", "setting": "E. cloacae CQ1941; Cpd conc. 0.4 μg/mL, strain D", "result": "> 0.5", "unit": "µg/mL"}, {"measurement": "MIC of colistin in combination with the compound", "setting": "E. cloacae CQ1941; Cpd conc. 0.8 μg/mL, strain D", "result": 0.5, "unit": "µg/mL"}, {"measurement": "MIC of colistin in combination with the compound", "setting": "E. cloacae CQ1941; Cpd conc. 3.125 μg/mL, strain D", "result": 0.25, "unit": "µg/mL"}, {"measurement": "MIC of colistin in combination with the compound", "setting": "E. cloacae CQ1941; Cpd conc. 6.25 μg/mL, strain D", "result": 0.25, "unit": "µg/mL"}, {"measurement": "MIC of colistin in combination with the compound", "setting": "E. cloacae CQ1941; Cpd conc. 12.5 μg/mL, strain D", "result": 0.25, "unit": "µg/mL"}, {"measurement": "MIC of colistin in combination with the compound", "setting": "E. cloacae CQ1941; Cpd conc. […], strain D", "result": 0.25, "unit": "µg/mL"}, {"measurement": "MIC", "setting": "E. cloacae CQ1941; agent alone, no adjuvant (polymyxin conc. 0), strain D, read-out: MIC", "result": "> 100", "unit": "µg/mL"}, {"measurement": "MIC", "setting": "E. cloacae CQ1941; [1]", "result": "> 100", "unit": "µg/mL"}, {"measurement": "MIC of compound in combination with PMB", "setting": "E. cloacae CQ1941; PMB 0.25 μg/mL, strain D", "result": "> 100", "unit": "µg/mL"}, {"measurement": "MIC of compound in combination with PMB", "setting": "E. cloacae CQ1941; PMB 0.5 μg/mL, strain D", "result": 1.6, "unit": "µg/mL"}, {"measurement": "MIC of compound in combination with colistin", "setting": "E. cloacae CQ1941; colistin 0.06 μg/mL, strain D", "result": "> 100", "unit": "µg/mL"}, {"measurement": "MIC of compound in combination with colistin", "setting": "E. cloacae CQ1941; colistin 0.125 μg/mL, strain D", "result": "> 100", "unit": "µg/mL"}, {"measurement": "MIC of compound in combination with colistin", "setting": "E. cloacae CQ1941; colistin 0.25 μg/mL, strain D", "result": 1.6, "unit": "µg/mL"}, {"measurement": "MIC of compound in combination with colistin", "setting": "E. cloacae CQ1941; colistin 0.5 μg/mL, strain D", "result": 0.8, "unit": "µg/mL"}, {"measurement": "MICB(A + B) (MIC of colistin in combination with compound)", "setting": "E. cloacae CQ1941; [2]", "result": 0.25, "unit": "µg/mL"}, {"measurement": "Interpretation (of FICI)", "setting": "E. cloacae CQ1941; compound + colistin", "result": "Additive (from 0.5 to 1.0 were additive)"}, {"measurement": "FICI", "setting": "E. cloacae CQ1941; [3]", "result": 0.52}, {"measurement": "MIC of colistin in combination with the compound", "setting": "E. coli NCTC 13846; Cpd conc. 0.4 μg/mL", "result": "> 0.5", "unit": "µg/mL"}, {"measurement": "MIC of colistin in combination with the compound", "setting": "E. coli NCTC 13846; Cpd conc. 0.8 μg/mL", "result": "> 0.5", "unit": "µg/mL"}, {"measurement": "MIC of colistin in combination with the compound", "setting": "E. coli NCTC 13846; Cpd conc. 3.125 μg/mL", "result": "> 0.5", "unit": "µg/mL"}, {"measurement": "MIC of colistin in combination with the compound", "setting": "E. coli NCTC 13846; Cpd conc. 6.25 μg/mL", "result": "> 0.5", "unit": "µg/mL"}, {"measurement": "MIC of colistin in combination with the compound", "setting": "E. coli NCTC 13846; Cpd conc. 12.5 μg/mL", "result": "> 0.5", "unit": "µg/mL"}, {"measurement": "MIC of colistin in combination with the compound", "setting": "E. coli NCTC 13846; Cpd conc. […]", "result": "> 0.5", "unit": "µg/mL"}, {"measurement": "MIC", "setting": "E. coli NCTC 13846; Escherichia coli, NCTC13846, agent alone, no adjuvant (polymyxin conc. 0), read-out: MIC", "result": "> 100", "unit": "µg/mL"}, {"measurement": "MIC of compound in combination with PMB", "setting": "E. coli NCTC 13846; PMB 0.25 μg/mL", "result": "> 100", "unit": "µg/mL"}, {"measurement": "MIC of compound in combination with PMB", "setting": "E. coli NCTC 13846; PMB 0.5 μg/mL", "result": "> 100", "unit": "µg/mL"}, {"measurement": "MIC of compound in combination with colistin", "setting": "E. coli NCTC 13846; colistin 0.06 μg/mL", "result": "> 100", "unit": "µg/mL"}, {"measurement": "MIC of compound in combination with colistin", "setting": "E. coli NCTC 13846; colistin 0.125 μg/mL", "result": "> 100", "unit": "µg/mL"}, {"measurement": "MIC of compound in combination with colistin", "setting": "E. coli NCTC 13846; colistin 0.25 μg/mL", "result": "> 100", "unit": "µg/mL"}, {"measurement": "MIC of compound in combination with colistin", "setting": "E. coli NCTC 13846; colistin 0.5 μg/mL", "result": "> 100", "unit": "µg/mL"}, {"measurement": "MIC of colistin in combination with the compound", "setting": "E. coli ATCC 25922; Cpd conc. 0.4 μg/mL, strain A", "result": "> 0.5", "unit": "µg/mL"}, {"measurement": "MIC of colistin in combination with the compound", "setting": "E. coli ATCC 25922; Cpd conc. 0.8 μg/mL, strain A", "result": "> 0.5", "unit": "µg/mL"}, {"measurement": "MIC of colistin in combination with the compound", "setting": "E. coli ATCC 25922; Cpd conc. 3.125 μg/mL, strain A", "result": 0.25, "unit": "µg/mL"}, {"measurement": "MIC of colistin in combination with the compound", "setting": "E. coli ATCC 25922; Cpd conc. 6.25 μg/mL, strain A", "result": 0.25, "unit": "µg/mL"}, {"measurement": "MIC of colistin in combination with the compound", "setting": "E. coli ATCC 25922; Cpd conc. 12.5 μg/mL, strain A", "result": 0.25, "unit": "µg/mL"}, {"measurement": "MIC of colistin in combination with the compound", "setting": "E. coli ATCC 25922; Cpd conc. […], strain A", "result": "> 0.5", "unit": "µg/mL"}, {"measurement": "MIC", "setting": "E. coli ATCC 25922; agent alone, no adjuvant (polymyxin conc. 0), strain A, read-out: MIC", "result": "> 100", "unit": "µg/mL"}, {"measurement": "MIC", "setting": "E. coli ATCC 25922; [1]", "result": "> 100", "unit": "µg/mL"}, {"measurement": "MIC of compound in combination with PMB", "setting": "E. coli ATCC 25922; PMB 0.25 μg/mL, strain A", "result": "> 100", "unit": "µg/mL"}, {"measurement": "MIC of compound in combination with PMB", "setting": "E. coli ATCC 25922; PMB 0.5 μg/mL, strain A", "result": 3.1, "unit": "µg/mL"}, {"measurement": "MIC of compound in combination with colistin", "setting": "E. coli ATCC 25922; colistin 0.06 μg/mL, strain A", "result": "> 100", "unit": "µg/mL"}, {"measurement": "MIC of compound in combination with colistin", "setting": "E. coli ATCC 25922; colistin 0.125 μg/mL, strain A", "result": "> 100", "unit": "µg/mL"}, {"measurement": "MIC of compound in combination with colistin", "setting": "E. coli ATCC 25922; colistin 0.25 μg/mL, strain A", "result": 3.1, "unit": "µg/mL"}, {"measurement": "MIC of compound in combination with colistin", "setting": "E. coli ATCC 25922; colistin 0.5 μg/mL, strain A", "result": 3.1, "unit": "µg/mL"}, {"measurement": "MICA(A + B) (MIC of compound in combination with colistin)", "setting": "E. coli ATCC 25922; [2]", "result": 3.125, "unit": "µg/mL"}, {"measurement": "MICB(A + B) (MIC of colistin in combination with compound)", "setting": "E. coli ATCC 25922; [2]", "result": 0.25, "unit": "µg/mL"}, {"measurement": "Interpretation (of FICI)", "setting": "E. coli ATCC 25922; compound + colistin", "result": "Additive (from 0.5 to 1.0 were additive)"}, {"measurement": "FICI", "setting": "E. coli ATCC 25922; [3]", "result": 0.52}]}
